What was measured:
[1] = test system: HSV-1; conditions: in MRC5 cells; cited from earlier work
[2] = test system: HSV-1; experiment: TRUSTED PRM assay of HSV-1 viral protein levels after small molecule treatment; format: cell-based; conditions: for DBP (P04296) protein level / TK (P03176) protein level / UL8 (P10192) protein level / UL12 (P04294) protein level / UL30 (P04293) protein level / UL42 (P10226) protein level / US3 (P04413) protein level: E; for DBP (P04296) protein level / TK (P03176) protein level / UL8 (P10192) protein level / UL12 (P04294) protein level / UL30 (P04293) protein level / UL42 (P10226) protein level / US3 (P04413) protein level / ICP0 (P08393) protein level / ICP4 (P08392) protein level / ICP22 (P04485) protein level / UL54 (P10238) protein level / CVC2 (P10209) protein level / UL26 (P10210) protein level / UL48 (P06492) protein level / UL49 (P10233) protein level / gB (P10211) protein level / gI (P06487) protein level: FIG. 8A; for ICP0 (P08393) protein level / ICP4 (P08392) protein level / ICP22 (P04485) protein level / UL54 (P10238) protein level: IE; for CVC2 (P10209) protein level / UL26 (P10210) protein level / UL48 (P06492) protein level / UL49 (P10233) protein level / gB (P10211) protein level / gI (P06487) protein level: L
Method: (§1) In example herpesvirus PRM assay methods shown herein, cell pellets were lysed in 2% SDS, 100 mM NaCl, 0.5 mM EDTA, 50 mM Tris, pH 8.2, and 50 μg of protein was reduced and alkylated with 25 mM TCEP and 50 mM CAM respectively for 20 min at 70° C. Proteins were then precipitated via methanol chloroform precipitation (Wessel & Flugg, Anal Biochem. 138(1):141-143, 1984), resuspended in 50 mM HEPES, pH 8.2 and digested overnight with trypsin (50:1 protein:enzyme w/w ratio). Digested peptides were desalted by SDB-RPS StageTip as previously described (Lum et al., Cell Syst., 7(6):[…], 2018; Greco et al., Methods Mol Biol 1410:39-63, 2016; Federspiel & Cristea, Methods Mol Biol., 1977:115-143, 2019).
(§2) Peptides (1.0 μg on column) were analyzed by LC-MS/MS using a Dionex Ultimate 3000 UHPLC coupled online to an EASYSpray ion source and a Q Exactive HF. Peptides were separated on an EASYSpray C18 column (75 μm×25 cm) heated to 50° C. using a linear gradient of 5% B to 32% B over 60 min at a flow rate of 250 nL/min and were ionized at 1.7 kv. Mobile phase A consisted of 0.1% FA in H2O and mobile phase B consisted of 0.1% FA, 2.9% H2O in ACN.
(§3) The PRM method was controlled by a peptide inclusion list with retention time windows of 6 min for selected precursor ions.
(§4) The PRM assay was developed and analyzed using the open-source software Skyline (Maclean et al., Bioinformatics 26(7):966-968, 2010). Summed area under the curve of 3-4 transitions per peptide was used for quantitation. Targeted peptides were normalized to host protein loading control peptides. Peptide values for each sample were scaled to the average of each peptide across all runs. The average of multiple peptides was used as the inferred value for the protein measurement when more than one peptide was quantified (Federspiel et al., PLoS Biol. 17(9):e3000437. Doi: 10.1371/journal.pbio.3000437). PRM quantitation data were graphed using the Python Seaborn and Matplotlib libraries.
(§5) MRC5 primary human fibroblasts (HFs) (ATCC CCL-171) were used as the model system for HSV-1 and HCMV infections and were cultured in complete growth medium (DMEM supplemented with 10% fetal bovine serum and 1% penicillin-streptomycin antibiotics) at 37° C. and 5% CO2. iSLK.219 cells harboring latent KSHV (a gift from Dr. Britt Glaunsinger, University of California, Berkeley) were grown in complete growth medium supplemented with 500 μg/ml hygromycin (ThermoFisher Scientific, 10687010) at 37° C. and 5% CO2. All cells were used for experiments within a maximum of 10 passages.
(§6) Wild type HSV-1 strain 17+ (a gift from Beate Sodeik, Hannover Medical School, Hannover, Germany) was propagated as previously described (Diner et al., 2015). Briefly, PO stocks were generated by electroporating pBAC-HSV-1 into U-2 OS cells. […] In a similar manner, wild type HCMV strain AD169 was produced from BAC electroporation into HFs and working stocks were propagated by infecting HFs at a low level. In both cases, cell-associated virus was released by sonication, combined with supernatant virus, then concentrated by ultracentrifugation (20,000 rpm, 2 hours, 4° C. with SW28 swinging bucket rotor [Beckman Coulter]) over a 10% ficoll (HSV-1) or 20% sorbitol (HCMV) cushion. Virus stock titers were determined by plaque assay for HSV-1 or tissue culture infectious dose (TCID50) for HCMV and infections were performed at a multiplicity of infection (MOI) of 3.
(§7) 12 hours prior to virus infection or reactivation, cells were treated with either the small molecule drug or DMSO/PBS control at an equivalent volume. […] For infection cycles lasting longer than 24 hours, small molecule drugs were re-added to the cell culture medium every 24 hours. Upon collection, cells were rinsed with PBS, scraped into a microcentrifuge tube, pelleted by centrifugation, and rinsed again with PBS.

[3] = test system: HCMV; conditions: cited from earlier work
[4] = test system: iSLK.219 cell line; experiment: Toxicity to the iSLK.219 cell line; format: cell-based; conditions: 50 μM
[5] = test system: HCMV; format: cell-based
Method: as §1, §2, §3, §4, §5, §6, §7

[6] = 1 μM, by and after 12 HPI, vs DMSO

In the case of `Nc1nc2c(ncn2COCCO)c(=O)[nH]1` [ACV, acyclovir], the IC50 [1] is given as 2000 to 3000 nM, the “HSV-1 late gene expression” value [2] is given as “reduction” and the “effect on IE HSV-1 protein levels” value ([2]; 1 μM) is given as “little effect”. For the same compound, the “levels of HSV-1 proteins DBP, UL42, UL30, UL8, UL12 and UL48” value ([2]; 1 μM) was “significant reduction”, the “decrease in levels of E HSV-1 proteins” value [2, 6] was about 20% and the “decrease in levels of L HSV-1 proteins” value [2, 6] was about 35%. For the same compound, the “expression of IE and E HSV-1 genes” value ([2]; 6 HPI) was “increase”.

With `Oc1ccc(/C=C/c2cc(O)cc(O)c2)cc1` [Res] the “DBP (P04296) protein level” value ([2]; timepoint 2) was 0.02121, the “TK (P03176) protein level” value ([2]; timepoint 2) was 0.03832 and the “UL8 (P10192) protein level” value ([2]; timepoint 2) was 0.0171. For the same compound, the “UL12 (P04294) protein level” value ([2]; timepoint 2) was 0.01763, the “UL30 (P04293) protein level” value ([2]; timepoint 2) was 0.03876 and the “UL42 (P10226) protein level” value ([2]; timepoint 2) was 0.003041. The “US3 (P04413) protein level” value ([2]; timepoint 2) was 0.01605, the “ICP0 (P08393) protein level” value ([2]; timepoint 2) was 0.1622 and the “ICP4 (P08392) protein level” value ([2]; timepoint 2) was 0.1073. The “ICP22 (P04485) protein level” value ([2]; timepoint 2) was 0.015, the “UL54 (P10238) protein level” value ([2]; timepoint 2) was 0.0667 and the “CVC2 (P10209) protein level” value ([2]; timepoint 2) was 0.01003. The “UL26 (P10210) protein level” value ([2]; timepoint 2) was 0.003453, the “UL48 (P06492) protein level” value ([2]; timepoint 2) was 0.007183 and the “UL49 (P10233) protein level” value ([2]; timepoint 2) was 0.009894. For the same compound, the “gB (P10211) protein level” value ([2]; timepoint 2) was 0.0128, the “gI (P06487) protein level” value ([2]; timepoint 2) was 0.00718 and the “DBP (P04296) protein level” value ([2]; timepoint 6) was 0.9121. The “TK (P03176) protein level” value ([2]; timepoint 6) was 0.9707, the “UL8 (P10192) protein level” value ([2]; timepoint 6) was 1.056 and the “UL12 (P04294) protein level” value ([2]; timepoint 6) was 0.7418. The “UL30 (P04293) protein level” value ([2]; timepoint 6) was 1.353, the “UL42 (P10226) protein level” value ([2]; timepoint 6) was 0.2866 and the “US3 (P04413) protein level” value ([2]; timepoint 6) was 0.616. The “ICP0 (P08393) protein level” value ([2]; timepoint 6) was 0.5333, the “ICP4 (P08392) protein level” value ([2]; timepoint 6) was 1.063 and the “ICP22 (P04485) protein level” value ([2]; timepoint 6) was 0.7429. For the same compound, the “UL54 (P10238) protein level” value ([2]; timepoint 6) was 0.9415, the “CVC2 (P10209) protein level” value ([2]; timepoint 6) was 0.2592 and the “UL26 (P10210) protein level” value ([2]; timepoint 6) was 0.1986. The “UL48 (P06492) protein level” value ([2]; timepoint 6) was 0.1816, the “UL49 (P10233) protein level” value ([2]; timepoint 6) was 0.428 and the “gB (P10211) protein level” value ([2]; timepoint 6) was 0.5098. For the same compound, the “gI (P06487) protein level” value ([2]; timepoint 6) was 0.5705, the “TK (P03176) protein level” value ([2]; timepoint 12) was 1.24 and the “UL8 (P10192) protein level” value ([2]; timepoint 12) was 0.9123. The “UL12 (P04294) protein level” value ([2]; timepoint 12) was 0.8878, the “UL30 (P04293) protein level” value ([2]; timepoint 12) was 1.001 and the “UL42 (P10226) protein level” value ([2]; timepoint 12) was 0.7743. For the same compound, the “US3 (P04413) protein level” value ([2]; timepoint 12) was 1.156, the “ICP0 (P08393) protein level” value ([2]; timepoint 12) was 1.108 and the “ICP4 (P08392) protein level” value ([2]; timepoint 12) was 1.101. The “ICP22 (P04485) protein level” value ([2]; timepoint 12) was 1.241, the “UL54 (P10238) protein level” value ([2]; timepoint 12) was 1.026 and the “CVC2 (P10209) protein level” value ([2]; timepoint 12) was 0.7067. The “UL26 (P10210) protein level” value ([2]; timepoint 12) was 0.7549, the “UL48 (P06492) protein level” value ([2]; timepoint 12) was 0.8411 and the “UL49 (P10233) protein level” value ([2]; timepoint 12) was 1.283. For the same compound, the “gB (P10211) protein level” value ([2]; timepoint 12) was 1.286, the “gI (P06487) protein level” value ([2]; timepoint 12) was 0.956 and the “TK (P03176) protein level” value ([2]; timepoint 18) was 0.9806. For the same compound, the “UL8 (P10192) protein level” value ([2]; timepoint 18) was 0.8259, the “UL12 (P04294) protein level” value ([2]; timepoint 18) was 0.7425 and the “UL30 (P04293) protein level” value ([2]; timepoint 18) was 0.7926. The “UL42 (P10226) protein level” value ([2]; timepoint 18) was 0.7837, the “US3 (P04413) protein level” value ([2]; timepoint 18) was 0.9457 and the “ICP0 (P08393) protein level” value ([2]; timepoint 18) was 1.159. For the same compound, the “ICP4 (P08392) protein level” value ([2]; timepoint 18) was 1.049, the “ICP22 (P04485) protein level” value ([2]; timepoint 18) was 1.213 and the “UL54 (P10238) protein level” value ([2]; timepoint 18) was 0.8148. The “CVC2 (P10209) protein level” value ([2]; timepoint 18) was 0.601, the “UL26 (P10210) protein level” value ([2]; timepoint 18) was 0.8898 and the “UL48 (P06492) protein level” value ([2]; timepoint 18) was 0.9275. For the same compound, the “gB (P10211) protein level” value ([2]; timepoint 18) was 1.306 and the “gI (P06487) protein level” value ([2]; timepoint 18) was 1.003.

For `Oc1ccc(/C=C/c2cc(O)cc(O)c2)cc1` [trans-Resveratrol], the “decrease in HCMV titers” value ([3]; […] CAY10602, 50 μM trans-Resveratrol) is given as about 50%, the HCMV titers [3] is given as “decreased” and the “toxicity to the iSLK.219 cell line” value [4] is given as “toxic”. The “HCMV UL122 (IE2) and UL123 (IE1) levels” value [5] was “decreases”, the “HCMV UL123 levels” value ([5]; 24 HPI, […] CAY10602, 50 μM trans-Resveratrol) was “unchanged” and the “HCMV UL26 levels” value ([5]; 48 HPI, […] CAY10602, 50 μM trans-Resveratrol) was “decreased”. For the same compound, the “HCMV viral protein production” value ([5]; by 48 HPI) was “global reduction”, the “HCMV UL99 levels” value ([5]; by 72 HPI, […] CAY10602, 50 μM trans-Resveratrol) was “robustly decreased” and the “global decrease in HCMV viral protein levels” value ([5]; by 120 HPI, […] CAY10602, 50 μM trans-Resveratrol) was about 70%. The “levels of HSV-1 viral transactivators ICP4 and UL48 (VP16)” value ([2]; 10 μM EX-527, 50 μM trans-Resveratrol) was “downregulated” and the “decrease in HSV-1 protein levels” value ([2]; 50 μM) was 30-40%.
